Reference: patent US10172787B2, “Method of regulating a condition of mammalian keratinous tissue” (priority 2015, dated 2019)

Tested on: interleukin-18 (IL-18)
Assay: Skin sensitization potential: IL-18 production in HEK
Assay type: cell-based, human
Conditions: 16 hours
Description: It is possible for a material to not be cytotoxic, and yet be unsafe due to provoking an allergic reaction upon skin contact. Typically, initial exposure to an allergen sensitizes the immune system, and following exposures cause an allergic response. […] Thus, IL-18 production in HEK was evaluated to determine sensitization potential.
Normal human adult epidermal keratinocytes (HEK) were cultured as described above for the cytoxicity evaluation. […] The cell lysates were collected, and IL-18 was quantified using Human IL-18 ELISA Kit (Catalog #7620, produced by MBL International Co., Woburn, Mass., USA). […] Fold changes of IL-18 levels between test articles and respective vehicle controls were calculated and compared to pPD (positive control). […]

Question: With `Nc1ccc(N)cc1` [benchmark sensitizer, para-phenylenediamine] as the molecule, how does the “IL18 Maximum fold (vs vehicle control)” value read?
Answer: 7.8 fold)
